Test results reported in patent US9914730B2, “Azaquinazoline inhibitors of Atypical protein Kinase C” (Ignyta, Inc., priority 2012, dated 2018).

Biological target: T1, full-length human PKCι (Homo sapiens, UniProt P41743)
T1 construct: Recombinant, full-length human PKCι expressed in Sf21 insect cells is also commercially available; purchased; host or cells: Sf21 insect cells
T1 sequence (P41743 1-596): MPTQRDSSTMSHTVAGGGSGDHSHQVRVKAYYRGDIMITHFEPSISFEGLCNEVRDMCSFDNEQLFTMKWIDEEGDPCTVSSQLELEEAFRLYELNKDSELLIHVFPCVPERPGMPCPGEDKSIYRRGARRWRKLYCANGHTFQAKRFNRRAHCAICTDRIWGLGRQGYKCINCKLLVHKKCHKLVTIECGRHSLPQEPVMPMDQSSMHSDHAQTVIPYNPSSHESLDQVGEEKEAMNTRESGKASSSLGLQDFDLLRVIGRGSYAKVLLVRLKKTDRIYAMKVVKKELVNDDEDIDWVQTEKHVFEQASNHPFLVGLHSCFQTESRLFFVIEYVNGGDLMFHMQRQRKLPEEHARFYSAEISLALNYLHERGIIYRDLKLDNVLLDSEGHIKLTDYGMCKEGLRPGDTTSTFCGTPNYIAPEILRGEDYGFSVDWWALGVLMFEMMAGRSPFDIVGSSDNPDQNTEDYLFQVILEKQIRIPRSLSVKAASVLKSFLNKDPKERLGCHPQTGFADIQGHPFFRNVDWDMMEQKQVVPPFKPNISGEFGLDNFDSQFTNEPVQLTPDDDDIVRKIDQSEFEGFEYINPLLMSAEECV
Experiment: PKCι IC50 IMAP assay, full-length PKCι at 150 μM ATP
Format: biochemical
Settings: read-out: IC50 in IMAP assay against full length PKCi at 150 μM ATP
Method in brief: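 IMAP fluorescence polarisation (ex 485/em 530 nm) read-out; % inhibition set from no-compound (0%) and no-enzyme (100%) controls, IC50 from dose-response curve fit. Sf21-expressed full-length enzyme ~15 pM, 100 nM FAM peptide, ATP 150 μM (5× KM^APP), 60 min at RT.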

Row | IC50 [nM] | Compound
1 | < 100 | c1cc(Nc2cc(-c3nc(N4CCNCC4)c4c(C5CC5)cncc4n3)ccn2)c2nonc2c1 [Example 2104, Benzo[1,2,5]oxadiazol-4-yl-[4-(5-cyclopropyl-4-piperazin-1-yl-pyrido[3,4-d]pyrimidin-2-yl)-pyridin-2-yl]-amine]
2 | < 100 | COc1cncc2nc(-c3ccnc(Nc4cc(C#N)ccn4)c3)nc(N[C@@H]3CCNC3)c12 [Example 332, 2-{4-[5-Methoxy-4-((R)-pyrrolidin-3-ylamino)-pyrido[3,4-d]pyrimidin-2-yl]-pyridin-2-ylamino}-isonicotinonitrile]
3 | < 100 | FC(F)(F)C1(c2cc3c(-c4nc(N5CCNCC5)c5c(C6CCC6)cncc5n4)ccnc3[nH]2)CCC1 [Example 2183, 5-Cyclobutyl-4-piperazin-1-yl-2-[2-(1-trifluoromethyl-cyclobutyl)-1H-pyrrolo[2,3-b]pyridin-4-yl]-pyrido[3,4-d]pyrimidine]
4 | < 100 | Fc1cc(F)c(Nc2cc(-c3nc(N4CCNCC4)c4c(C(F)(F)F)cncc4n3)ccn2)nc1F [Example 2195, [4-(4-Piperazin-1-yl-5-trifluoromethyl-pyrido[3,4-d]pyrimidin-2-yl)-pyridin-2-yl]-(3,5,6-trifluoro-pyridin-2-yl)-amine]
5 | 100 to 1000 | CN1CCN(c2cccc(Nc3cc(-c4nc(N5C[C@H](O)[C@@H](O)C5)c5c(C6CC6)cncc5n4)ccn3)c2)CC1 [Example 793, (3S,4S)-1-(5-Cyclopropyl-2-{2-[3-(4-methyl-piperazin-1-yl)-phenylamino]-pyridin-4-yl}-pyrido[3,4-d]pyrimidin-4-yl)-pyrrolidine-3,4-diol]
6 | < 100 | Fc1ccc(Nc2cc(-c3nc(N4CCNCC4)c4c(C5CC5)cncc4n3)ccn2)c(F)c1 [Example 651, [4-(5-Cyclopropyl-4-piperazin-1-yl-pyrido[3,4-d]pyrimidin-2-yl)-pyridin-2-yl]-(2,4-difluoro-phenyl)-amine]
7 | < 100 | C[C@H]1CN(c2nc(-c3ccnc(Nc4ccc(F)cc4)c3)nc3cncc(C4CC4)c23)CCN1 [Example 693, {4-[5-Cyclopropyl-4-((S)-3-methyl-piperazin-1-yl)-pyrido[3,4-d]pyrimidin-2-yl]-pyridin-2-yl}-(4-fluoro-phenyl)-amine]
8 | 1000 to 10000 | CC(C)NC(=O)C1CCN(c2nc(-c3ccncc3)nc3cnccc23)CC1 [Example 55, N-(propan-2-yl)-1-[2-(pyridin-4-yl)-pyrido[3,4-d]-pyrimidin-4-yl]-piperidine-4-carboxamide]
9 | < 100 | Cc1ccc(C#N)cc1Nc1cc(-c2nc(N3CCNCC3)c3c(C4CC4)cncc3n2)ccn1 [Example 524, 3-[4-(5-Cyclopropyl-4-piperazin-1-yl-pyrido[3,4-d]pyrimidin-2-yl)-pyridin-2-ylamino]-4-methyl-benzonitrile]
10 | < 100 | COc1cncc2nc(-c3ccnc(Nc4ccc(N5CCOCC5)nc4)c3)nc(N3CCNCC3)c12 [Example 375, [4-(5-Methoxy-4-piperazin-1-yl-pyrido[3,4-d]pyrimidin-2-yl)-pyridin-2-yl]-(6-morpholin-4-yl-pyridin-3-yl)-amine]
11 | 1000 to 10000 | Clc1cc(-c2nc(N3CCN[C@@H](COCc4ccccc4)C3)c3c(C4CC4)cncc3n2)ccn1 [Example 733, 4-((R)-3-Benzyloxymethyl-piperazin-1-yl)-2-(2-chloro-pyridin-4-yl)-5-cyclopropyl-pyrido[3,4-d]pyrimidine]
12 | < 100 | COc1cncc2nc(-c3ccnc(NC(=O)Cc4cccnc4)c3)nc(N[C@@H]3CCNC3)c12 [Example 396, N-{4-[5-Methoxy-4-((R)-pyrrolidin-3-ylamino)-pyrido[3,4-d]pyrimidin-2-yl]-pyridin-2-yl}-2-pyridin-3-yl-acetamide]
13 | < 100 | CN(c1nc(-c2ccnc(Nc3c(F)cccc3F)c2)nc2cncc(C3CC3)c12)C1CCNC1 (stereo not shown) [Example 2025, {5-Cyclopropyl-2-[2-(2,6-difluoro-phenylamino)-pyridin-4-yl]-pyrido[3,4-d]pyrimidin-4-yl}-methyl-pyrrolidin-3-yl-amine]
14 | < 100 | Fc1cccc(F)c1Nc1cc(-c2nc(N3CCNC4(CC4)C3)c3c(C4CC4)cncc3n2)ccn1 [Example 829, {4-[5-Cyclopropyl-4-(4,7-diaza-spiro[2.5]oct-7-yl)-pyrido[3,4-d]pyrimidin-2-yl]-pyridin-2-yl}-(2,6-difluoro-phenyl)-amine]
15 | 1000 to 10000 | COc1cncc2nc(-c3ccncc3)nc(N3CCNC(CF)C3)c12 (stereo not shown) [Example 54, 3-(fluoromethyl)-1-[5-methoxy-2-(pyridin-4-yl)-pyrido[3,4-d]-pyrimidin-4-yl]-piperazine]
16 | 1000 to 10000 | c1ccc(C[C@H]2CN(c3nc(N4CCOCC4)nc4cnccc34)CCN2)cc1 [Example 1000, 4-((S)-3-Benzyl-piperazin-1-yl)-2-morpholin-4-yl-pyrido[3,4-d]pyrimidine]
17 | < 100 | FC(F)(F)c1cnnc(Nc2cc(-c3nc(N4CCNCC4)c4c(C5CC5)cncc4n3)ccn2)c1 [Example 565, [4-(5-Cyclopropyl-4-piperazin-1-yl-pyrido[3,4-d]pyrimidin-2-yl)-pyridin-2-yl]-(5-trifluoromethyl-pyridazin-3-yl)-amine]
18 | 1000 to 10000 | COc1cncc2nc(N3CCOC(COc4ccccc4)C3)nc(N3CCNCC3)c12 (stereo not shown) [Example 1004, 5-Methoxy-2-(2-phenoxymethyl-morpholin-4-yl)-4-piperazin-1-yl-pyrido[3,4-d]pyrimidine]
19 | 1000 to 10000 | COc1cncc2nc(-c3ccncc3)nc(N3CCC(N)(C(N)=O)C3)c12 (stereo not shown) [Example 152, 3-Amino-1-(5-methoxy-2-pyridin-4-yl-pyrido[3,4-d]pyrimidin-4-yl)-pyrrolidine-3-carboxylic acid amide]
20 | < 100 | N#Cc1ccc(Nc2cc(-c3nc(N[C@@H]4CCNC4)c4ccncc4n3)ccn2)nc1 [Example 341, 6-{4-[4-((R)-Pyrrolidin-3-ylamino)-pyrido[3,4-d]pyrimidin-2-yl]-pyridin-2-ylamino}-nicotinonitrile]
21 | < 100 | FC(F)c1cc2c(-c3nc(N4CCNCC4)c4c(C5CCC5)cncc4n3)ccnc2[nH]1 [Example 2114, 5-Cyclobutyl-2-(2-difluoromethyl-1H-pyrrolo[2,3-b]pyridin-4-yl)-4-piperazin-1-yl-pyrido[3,4-d]pyrimidine]
22 | < 100 | Fc1cc(-c2nc(N3CCNCC3)c3c(C4CC4)cncc3n2)ccn1 [Example 689, 5-Cyclopropyl-2-(2-fluoro-pyridin-4-yl)-4-piperazin-1-yl-pyrido[3,4-d]pyrimidine]
23 | 100 to 1000 | Nc1ccc(C(=O)Nc2cc(-c3nc(N[C@@H]4CCNC4)c4ccncc4n3)ccn2)cc1 [Example 305, 4-Amino-N-{4-[4-((R)-pyrrolidin-3-ylamino)-pyrido[3,4-d]pyrimidin-2-yl]-pyridin-2-yl}-benzamide]
24 | < 100 | CC(C)(O)C#Cc1nccc2c(NCC(N)Cc3ccccc3)nc(-c3ccncc3)nc12 (stereo in doubt) [Example 131, 4-(4-{[(2S)-2-amino-3-phenylpropyl]amino}-2-(pyridin-4-yl)pyrido[3,4-d]pyrimidin-8-yl)-2-methylbut-3-yn-2-ol]
25 | 10000 to 40000 | COc1cncc2nc(-c3ccnc(Nc4cc(C#N)ccn4)c3)nc(N3CCOCC3)c12 [Example 388, 2-[4-(5-Methoxy-4-morpholin-4-yl-pyrido[3,4-d]pyrimidin-2-yl)-pyridin-2-ylamino]-isonicotinonitrile]
26 | < 100 | Cc1cc2c(-c3nc(N4CCNC(C(F)(F)F)C4)c4c(C5CC5)cncc4n3)ccnc2[nH]1 (stereo not shown) [Example 1215, 5-Cyclopropyl-2-(2-methyl-1H-pyrrolo[2,3-b]pyridin-4-yl)-4-(3-trifluoromethyl-piperazin-1-yl)-pyrido[3,4-d]pyrimidine]
27 | < 100 | Fc1cc(F)c(Nc2cc(-c3nc(N4CCNCC4)c4c(C5CC5)cncc4n3)ccn2)nc1F [Example 680]
28 | 100 to 1000 | Fc1cnc(Nc2cc(-c3nc(N4CCNCC4)c4c(C5CC5)cnc(C5CC5)c4n3)ccn2)c(F)c1 [Example 2188, [4-(5,8-Dicyclopropyl-4-piperazin-1-yl-pyrido[3,4-d]pyrimidin-2-yl)-pyridin-2-yl]-(3,5-difluoro-pyridin-2-yl)-amine]
29 | 100 to 1000 | COc1cncc2nc(-c3ccnc(Nc4ccccc4)c3)nc(N3CCN[C@@H](C4CC4)C3)c12 [Example 236]
30 | < 100 | CC(C)(c1cc2c(-c3nc(N4CCNCC4)c4c(C5CC5)cncc4n3)ccnc2[nH]1)C(F)(F)F [Example 2063, 5-Cyclopropyl-4-piperazin-1-yl-2-[2-(2,2,2-trifluoro-1,1-dimethyl-ethyl)-1H-pyrrolo[2,3-b]pyridin-4-yl]-pyrido[3,4-d]pyrimidine]

Row | Compound | IC50 [nM]
31 | CN(c1nc(-c2ccnc(Nc3ncc(F)cc3F)c2)nc2cncc(C3CC3)c12)C1CCNCC1 [Example 2095, {5-Cyclopropyl-2-[2-(3,5-difluoro-pyridin-2-ylamino)-pyridin-4-yl]-pyrido[3,4-d]pyrimidin-4-yl}-methyl-piperidin-4-yl-amine] | < 100
